Results published in US9682058B2, “Method of treating viral infections by administration of ethyl mercury or thiol derivative thereof” (BEECH TREE LABS, INC., priority 2010, dated 2017).
“And” between values parts separate entries of the source, which are not always exact repeats. Equal values may be shown once. Read-outs that look alike come from different tables or passages of the source.

How the values were obtained:
[1] = test system: herpes virus; conditions: cited from earlier work
[2] = test system: herpes viruses; conditions: cited from earlier work
[3] = test system: common cold
Protocol: A fifty-three old person with classic symptoms of the common cold used one drop of thimerosal (in a dose of 0.05 cc) every hour for one day.
The child of the person in Example 4 was treated with thimerosal for the common cold on several occasions. The child experienced symptoms for 5-7 days without treatment, which was reduced to 1-3 days when treated with thimerosal.

[4] = test system: HSV; conditions: Vero cells, 40 ng/ml
Protocol: Green Monkey Kidney (Vero) cells were treated with thimerosal (40 ng/ml) at various time points (12 hours, 4 hours, 1 hour, and 30 minutes) prior to and at the time of HSV infection. The number of plaques formed on day 6 post-infection was used to measure the effectiveness of thimerosal in preventing HSV infections.

[5] = test system: JC virus
[6] = test system: adenovirus; conditions: person, one drop (0.05 cc) every 15 minutes for an hour, then every hour until bedtime
Protocol: A person with symptoms of an adenovirus infection took one drop of thimerosal (in a dose of 0.05 cc) every 15 minutes for an hour, and then one drop every hour until bedtime.

[7] = test system: laryngeal papillomas; conditions: child, one drop (0.05 cc) every 15 minutes for an hour, then hourly; six times daily on days 2 and 3
Protocol: A child suffering from laryngeal papillomas spreading to the soft palate was treated with one drop of thimerosal (in a dose of 0.05 cc) every 15 minutes for an hour and then one drop every hour until bedtime. Thimerosal was administered in one drop every six times daily on days 2 and 3 and then as needed on subsequent days.

[8] = test system: BK virus
[9] = test system: TUBB4
[10] = test system: TUBE1
[11] = test system: POLR2A
[12] = test system: SP1
[13] = test system: HSV; conditions: ARPE-19 cells, media of PBMCs incubated with 40 ng/ml thimerosal, overlaid prior to HSV infection
Protocol: PBMCs were incubated with 40 ng/ml thimerosal for a minimum of 6 hours and then were overlaid in ARPE-19 cells at various time points (12 hours, 4 hours, 2 hours, 1 hour, 30 minutes and 10 minutes) prior to HSV infection of the ARPE-19 cells. ARPE-19 cells were not continuously treated with thimerosal. ARPE-19 cells receiving thimerosal treatment with PBMC media was used as a control. The number of plaques formed on day 6 post-infection was used to measure the effectiveness of thimerosal in preventing HSV infections. The number of plaques was normalized to the number of plaques in the control.

[14] = test system: Vero cells; conditions: thimerosal doses tested (40 ng or 80 ng in 100 μl media)
Protocol: Vero cells were plated to a density of 70% confluency in 96-well dishes at a concentration of 75,000 cells/well). Cells were pretreated with either 40 ng or 80 ng thimerosal in 100 μl media for either 1 hour, 2 hours, 3 hours, 4 hours or 16 hours prior to infection.
After 1 hour at 37° C., virus was removed and cells were washed with unsupplemented MEM to remove unbound virus. The cells were then fed 100 μl/well complete media and stained for Tad (BK virus) or V-ag (JC virus) and scored via direct immunofluorescence.

[15] = test system: HSV; conditions: ARPE-19 cells, 40 ng/ml, continuous treatment before HSV infection, depending on the treatment time point
[16] = test system: LAT-SPNS1
[17] = test system: HSV; conditions: Vero cells, 40 ng/ml; remark: listed apart in the source
Protocol: Green Monkey Kidney (Vero) cells were treated with thimerosal (40 ng/ml) at various time points (30 minutes, 1 hour, 2 hours, 3, hours, 4 hours, 6 hours and 8 hours) after HSV infection. The number of plaques formed on day 6 post-infection was used to measure the effectiveness of thimerosal in preventing HSV infections. The number of plaques was normalized to the number of plaques in the control.

[18] = test system: TUBA4A
[19] = test system: TUBB4Q
[20] = test system: Vero cells
[21] = Text: A parent shared a drink with their child. Later that day the child asked their parent, who is an RN, to check the child's glands as they felt swollen and their throat hurt.
[22] = test system: porcine oocytes; conditions: cited from earlier work
[23] = test system: BK virus; remark: listed apart in the source
[24] = test system: molluscum contagiosum, a poxvirus infection; conditions: several children, one drop (0.05 cc) every 15 minutes for an hour, then hourly; six times daily on days 2 and 3
[25] = treatment at the time of infection

O=C(O)c1ccccc1SSc1ccccc1C(=O)O [dithiodibenzoic acid]
antiviral activity in vivo [1]: do not provide antiviral activity in vivo | anti-herpes virus activity in vitro [2]: indicated anti-herpes virus activity in vitro

C[CH2][Hg][S]c1ccccc1C(=O)[O-].[Na+] [thimerosal]
duration of common cold symptoms when treated ([3]; child, several occasions, 5-7 days without treatment): 1 to 3 days | symptoms of the common cold ([3]; fifty-three old male, one drop (0.05 cc) every hour for one day): resolved by the next day | number of plaques formed on day 6 post-infection ([4]; prophylactic therapy (12 hours, 4 hours, 1 hour, 30 minutes prior to HSV infection)): significant decrease in the number of plaques | number of plaques formed on day 6 post-infection ([4]; treatment 1 hour prior to HSV infection): highest reduction in the plaque number | number of plaques formed on day 6 post-infection [4, 25]: did not reduce the number of plaques | infectivity of the JC virus [5]: did not appear to inhibit infectivity | symptoms of an adenovirus infection [6]: significantly reduced and were gone the next day | anti-herpes virus activity in vitro [2]: demonstrate activity against herpes viruses | viral propagation ([2]; thimerosal mixed in a test tube with herpes virus, subsequently introduced into susceptible cells): viral propagation is not inhibited | resolution of the symptoms of laryngeal papillomas [7]: complete in five days | infectivity of BK virus [8]: reduction of the infectivity of the virus | Fold changes (vs. Control) [9]: 2.13 and 2.12 | Fold changes (vs. Control) [10]: 1.95 and 2.03 and 1.98 | Fold changes (vs. Control) [11]: −1.84 | Fold changes (vs. Control) [12]: 1.95 and 2.04 and 2 | antiviral activity (plaques day 6) versus thimerosal alone [13]: stronger antiviral activity | toxicity to cells [14]: did not appear to be toxic | inhibition of the activity of HSV (plaques, percent of control) [15]: up to 55% | Fold changes (vs. Control) [16]: 1.87 | number of plaques formed on day 6 post-infection ([17]; all other post-infection time points (30 minutes, 4, 6, 8 hours)): did not significantly reduce the number of plaques | number of plaques formed on day 6 post-infection ([17]; post-infection treatment from 1-3 hours): significant reduction in the plaque numbers | number of plaques formed on day 6 post-infection [17, 25]: did not change the number of plaques | Fold changes (vs. Control) [18]: 1.96 and 2 and 1.95 | Fold changes (vs. Control) [19]: 1.85 | toxicity to cells [20]: appeared to be toxic | symptoms (swollen glands, sore throat) ([21]; child, one drop (0.05 cc) at a two hour interval): symptoms were resolved | development of symptoms after prophylactic dosing ([21]; parent, dosed as a prophylactic measure): did not develop any symptoms | oocyte activation ([22]; 10 minute exposure to 200 μM thimerosal followed by 30 minute incubation in 8 mM DTT): induced complete activation of porcine oocytes | oocyte cell-cycle effect ([22]; thimerosal treatment alone): arrests oocytes in metaphase | infectivity of BK virus [23]: reduction of the infectivity of the virus | reduction of infectivity of BK virus [23]: approximately 30% | treatment outcome of molluscum contagiosum [24]: successfully treated

O=C(O)c1ccccc1S [thiosalicylic acid]
antiviral activity in vivo [1]: do not provide antiviral activity in vivo
